Experimental data published in BindingDB's records for doi:10.1021/jm00063a011 (Kyowa Hakko Kogyo, 1993).

Assays:
[1] = molecular target: Thromboxane-A synthase (Bos taurus); assay: Activity against TXA2 synthase in bovine platelet microsome
[2] = as above

Structure (SMILES) | IC50 [1] | IC50 [2]
C/C(=C\c1ccc(Cc2cccnc2)cc1)C(=O)O [Sodium; (E)-2-methyl-3-(4-pyridin-3-ylmethyl-phenyl)-acrylate] | 4.3 nM | –
O=C(O)c1ccc2c(c1)C(SCc1cccnc1)c1ccccc1CO2 (stereo not drawn) [11-(Pyridin-3-ylmethylsulfanyl)-6,11-dihydro-dibenzo[b,e]oxepine-2-carboxylic acid] | 4 nM | 400 nM
